The target of the experiment is rat α3/β4 nAChR (Rattus norvegicus, UniProt P04757+P12392). As to conditions: 60 pM [3H]-EB; for retention volume of [3H]-EB: 9.5 ml without competitor.

The values below come from patent publication US6387268B1 (priority 1998, dated 2002).

Read-outs that look alike come from different tables or passages of the source.

rat α3/β4 nAChR, sequence (P04757 26-499): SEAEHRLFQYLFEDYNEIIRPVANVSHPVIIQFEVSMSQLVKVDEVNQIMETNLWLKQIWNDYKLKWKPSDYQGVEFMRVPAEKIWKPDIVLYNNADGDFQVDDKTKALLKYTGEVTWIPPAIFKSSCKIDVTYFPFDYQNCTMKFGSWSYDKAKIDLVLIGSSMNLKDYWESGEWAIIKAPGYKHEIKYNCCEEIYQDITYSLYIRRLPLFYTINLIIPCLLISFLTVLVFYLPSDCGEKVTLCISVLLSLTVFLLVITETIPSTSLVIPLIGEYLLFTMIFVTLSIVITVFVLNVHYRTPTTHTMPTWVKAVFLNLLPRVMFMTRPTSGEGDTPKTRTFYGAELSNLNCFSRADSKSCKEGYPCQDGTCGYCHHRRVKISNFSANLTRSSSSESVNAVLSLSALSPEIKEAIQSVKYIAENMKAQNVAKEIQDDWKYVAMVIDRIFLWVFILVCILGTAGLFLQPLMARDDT
rat α3/β4 nAChR, sequence (P12392 22-495 limits assumed): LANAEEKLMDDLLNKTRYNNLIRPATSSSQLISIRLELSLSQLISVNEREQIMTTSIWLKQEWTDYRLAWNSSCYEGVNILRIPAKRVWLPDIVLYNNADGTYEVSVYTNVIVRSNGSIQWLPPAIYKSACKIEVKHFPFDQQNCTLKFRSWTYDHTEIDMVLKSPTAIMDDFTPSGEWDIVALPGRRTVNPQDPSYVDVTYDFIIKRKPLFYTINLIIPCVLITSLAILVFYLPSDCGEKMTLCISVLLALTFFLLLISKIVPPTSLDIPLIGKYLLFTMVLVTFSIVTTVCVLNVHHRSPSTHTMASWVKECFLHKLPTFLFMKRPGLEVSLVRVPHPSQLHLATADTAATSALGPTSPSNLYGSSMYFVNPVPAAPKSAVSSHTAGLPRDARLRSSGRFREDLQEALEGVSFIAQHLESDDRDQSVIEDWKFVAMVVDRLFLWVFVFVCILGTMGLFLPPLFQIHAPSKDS
Protocol: The cultured cells in which rat α3/β4 subtype of neural nicotinic acetylcholine receptor (nAChR) were expressed by transfected cell line KXα3β4R2 were harvested in 30 ml of Tris-HCl buffer (50 mM, pH 7.4) and homogenized for 20 minutes with a Brinkman Polytron homogenizer. The homogenates were centrifuged at 35,000×g for 10 minutes and the supernatant was discarded. The resulting pellets were suspended in 6 ml of 2% cholate in Tris-HCl buffer (50 mM, pH 7.4) and stirred for two hours in an ice bath. After centrifugation at 35,000×g, the supernatant was collected for the immobilization. IAM packing materials (200 mg) were washed three times by centrifugation with Tris-HCl buffer (50 mM, pH 7.4). The IAM materials were suspended in 4 ml of receptor-detergent solution, stirred for one hour at room temperature and dialyzed against 2×1 L buffer for 24 hours at 4° C. When detergents were depleted from the mixture, the receptors were hydrophobically entrapped in the phospholipid monolayer on the surface of IAM materials. The receptor-IAM materials were washed with buffer by centrifugation at 4000×g.
The NR(α4β2)-IAM packing materials were packed in an HR glass column (Pharmacia Biotech) and connected with an HPLC pump. […] The elution profile was monitored by an on-line radioactivity HPLC detector.
The resulting column was used in the LC study of drug-NR binding using frontal chromatographic techniques with [^3H]-epibatidine (EB) as the marker ligand. A series of [^3H]-EB concentrations ranging from 60 pM to 600 pM were pumped through the (α3/β4)NR-IAM column2 to obtain elution profiles showing front and plateau regions. The concentration of the [^3H]-EB in the column eluent was monitored by an LC on-line radioactivity detector.
The binding of the [^3H]-EB on the (α3/β4)NR-IAM column was be altered by the addition of competitive NR-ligands to the mobile phase.

As for `Clc1ccc(C2CC3CCC2N3)cn1` (racemic) [(±)-EB, epibatidine], the “mobile phase concentration required to decrease the retention volume of [3H]-EB from 9.5 ml to 6 ml” value turned out to be 120 pM. For the compound `c1cncc(OC[C@@H]2CCN2)c1` [A85380], the “mobile phase concentration required to decrease the retention volume of [3H]-EB from 9.5 ml to 6 ml” value amounted to 1.7e+10 pM. Also, for the setting “10 nM A85380 in mobile phase”, the “retention volume of [3H]-EB” value turned out to be 6.6 mL. Further, where the note is “100 nM A85380 in mobile phase”, the “retention volume of [3H]-EB” value was found to be 1.9 mL. For `C[N+](C)(C)CCOC(N)=O` [carbachol], the “mobile phase concentration required to decrease the retention volume of [3H]-EB from 9.5 ml to 6 ml” value turned out to be 1.3e+06 pM.

For the compound `CN1CCCC1c1cccnc1` (stereo not drawn) [nicotine], the “mobile phase concentration required to decrease the retention volume of [3H]-EB from 9.5 ml to 6 ml” value was determined as 45000 pM.
